{
  "source": "patent US6936628B2",
  "about": "“Oral administration of epothilones” (Bristol-Myers Squibb Company, priority 2002, dated 2005)",
  "key": {"[1]": {"experiment": "Water solubility (statement)", "format": "physicochemical", "procedure": "For these reasons Compound A may be formulated in an entirely aqueous excipient system for parenteral administration. To determine whether differences in the dosing vehicle may affect the antitumor activity of Compound A, a direct head-to-head comparison of the antitumor efficacy of Compound A formulated in either cremophor/ethanol/water (10:10:80, v/v/v) or sodium acetate buffer (30 mM, pH 5.0) was conducted. No formulation related effect was observed."}, "[2]": {"tested_on": "panel of tumor cell lines", "experiment": "In vitro cytotoxicity assay (MTS), panel of tumor cell lines", "format": "cell-based", "settings": "Homo sapiens; 7 of the 8 cell lines tested, 72-hour incubation"}, "HCT116/VM46 cells": {"tested_on": "HCT116/VM46 cells", "experiment": "In vitro cytotoxicity assay (MTS), HCT116/VM46", "format": "cell-based, human", "settings": "Homo sapiens, HCT-116/VM46; HCT116/VM46 (MDR colon line), 72-hour incubation"}, "[3]": {"tested_on": "tubulin isolated from calf brain", "format": "biochemical"}, "[4]": {"experiment": "Single dose pharmacokinetic study in dogs", "format": "in vivo, beagle dogs", "procedure": "The vehicle used for both IV and oral dose was propylene glycol:ethanol:phosphate buffer (pH 7.4-8.0) (40:5:55). […] The VSS value after IV administration was 4.7 L/kg, which is greater than the reported total body water of 0.6 L/kg in dogs, indicating significant extravascular distribution of Compound A. The T-HALF of Compound A was 3.9 and 3.1 h after IV and oral administration, respectively."}, "[5]": {"experiment": "Single dose IV toxicokinetic study in dogs", "format": "in vivo", "settings": "both sexes, dog, plasma, IV infusion; for Cmax: combined across gender", "procedure": "The single dose IV toxicokinetics of Compound A were evaluated in dogs as a part of a toxicology study. Compound A, prepared in 50 mM citrate buffer (pH 5), was given by IV infusion (over approximately 2-3 min period) at nominal doses of 0.07 and 0.35 mg/kg (the actual doses were 0.055 and 0.27 mg/kg, respectively) to 2 dogs/sex/dose. Blood samples were collected at 5 and 30 minutes, and at 1, 3, 6, 12, and 24 h after dosing. Plasma concentrations of Compound A were determined using a validated LC/MS/MS assay with a standard curve range of 2-500 ng/mL. […] Definitive comparison between sex was not made due to limited sample size per sex; however, it appeared that there were no marked differences in the systemic exposure to Compound A between male and female dogs."}, "[6]": {"experiment": "Oral bioavailability in humans", "settings": "in vivo, human patients", "description": "Compound A was well absorbed orally, providing a favorable drug exposure profile that is consistant with efficacious exposure in preclinical cancer models."}, "in vivo [7]": {"experiment": "in vivo", "settings": "Balb/c nu/nu, mouse, po"}, "in vivo [8]": {"experiment": "in vivo", "settings": "male, Sprague-Dawley, rat, plasma, 2 mg/kg, rats, IA 2 mg/kg"}, "in vivo [9]": {"experiment": "in vivo", "settings": "male, Sprague-Dawley, rat, plasma, other: intraarterial (IA), 2 mg/kg"}, "Liver S9 incubation, rat": {"experiment": "Liver S9 incubation, rat", "settings": "rat liver S9, 20 μM"}, "[10]": {"experiment": "Microsomal incubation, rat", "settings": "rat liver microsomes + NADPH, 20 μM"}, "[11]": {"experiment": "Microsomal incubation, dog", "settings": "dog liver microsomes + NADPH, 20 μM"}, "[12]": {"experiment": "Liver S9 incubation, human", "settings": "human liver S9, 20 μM"}, "[13]": {"experiment": "Microsomal incubation, mouse", "settings": "mouse liver microsomes + NADPH, 20 μM"}, "CYP1A2": {"target": "T1, CYP1A2 (Homo sapiens, UniProt P05177)", "T1 sequence (P05177 1-516)": "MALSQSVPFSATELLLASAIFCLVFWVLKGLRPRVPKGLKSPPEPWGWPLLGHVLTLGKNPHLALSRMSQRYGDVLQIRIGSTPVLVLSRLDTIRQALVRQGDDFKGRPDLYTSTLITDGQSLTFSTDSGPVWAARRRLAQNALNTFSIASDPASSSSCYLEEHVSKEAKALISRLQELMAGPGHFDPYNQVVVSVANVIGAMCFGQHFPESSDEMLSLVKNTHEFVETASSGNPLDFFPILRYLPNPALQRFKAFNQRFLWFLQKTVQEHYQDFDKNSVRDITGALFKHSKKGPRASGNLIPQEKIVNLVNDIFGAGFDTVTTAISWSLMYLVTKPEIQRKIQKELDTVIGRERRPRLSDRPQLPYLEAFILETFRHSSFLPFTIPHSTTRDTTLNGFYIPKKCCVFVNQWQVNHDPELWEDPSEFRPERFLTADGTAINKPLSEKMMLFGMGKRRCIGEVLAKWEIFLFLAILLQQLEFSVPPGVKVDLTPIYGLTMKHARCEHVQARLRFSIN", "experiment": "Inhibition of human CYP enzymes, CYP1A2"}, "[14]": {"experiment": "Plasma apparent steady-state concentration after 10-h IV infusion"}, "[15]": {"settings": "40 mg/m2, oral, 40 mg/m^2, n=10"}},
  "note": "Where “and” joins values, the source holds several entries; their conditions need not be identical. Identical values can stand only once. Like-named read-outs stand apart in the source and are kept apart here.",
  "data": [
    {"smiles": "C/C(=C\\c1csc(CN)n1)[C@@H]1C[C@@H]2O[C@]2(C)CCC[C@H](C)[C@H](O)[C@@H](C)C(=O)C(C)(C)[C@@H](O)CC(=O)O1", "note": "(relative stereo) [Compound A, [1S-[1R*,3R*(E),7R*,10S*,11R*,12R*,16S*]]-3-[2-[2-(aminomethyl)-4-thiazolyl]-1-methylethenyl]-7,11-dihydroxy-8,8,10,12,16-pentamethyl-4,17-dioxabicyclo[14.1.0]heptadecane-5,9-dione]", "values": [
      {"measurement": "water solubility", "setting": "[1]", "value": "highly water-soluble"},
      {"measurement": "IC50", "setting": "[2]", "value": "0.0009 to 0.0035", "unit": "µM"},
      {"measurement": "IC50", "setting": "HCT116/VM46 cells", "value": 0.0119, "unit": "µM"},
      {"measurement": "Polymerization Potency, EC0.01", "setting": "[3]", "value": 7.4, "unit": "µM"},
      {"measurement": "Ratio of Polymerization Potency of Analog/Paclitaxel", "setting": "[3]", "value": 1.7},
      {"measurement": "CLT", "setting": "[4]; IV 0.5 mg/kg", "value": "about 25.7 mL/min/kg"},
      {"measurement": "T-HALF", "setting": "[4]; IV 0.5 mg/kg", "value": 3.9, "unit": "h"},
      {"measurement": "Vd", "setting": "[4]; male, beagle, dog, plasma, IV 0.5 mg/kg, read-out: VSS", "value": 4.7, "unit": "L/kg"},
      {"measurement": "bioavailability", "setting": "[4]; male, beagle, dog, plasma, oral 1 mg/kg vs IV 0.5 mg/kg, read-out: mean absolute oral bioavailability", "value": 40, "unit": "%"},
      {"measurement": "T-HALF", "setting": "[4]; oral 1 mg/kg", "value": 3.1, "unit": "h"},
      {"measurement": "AUC", "setting": "[5]; 0.055 mg/kg", "value": 48.3, "unit": "ng·h/mL"},
      {"measurement": "Cmax", "setting": "[5]; 0.055 mg/kg", "value": 104, "unit": "ng/mL"},
      {"measurement": "AUC", "setting": "[5]; 0.27 mg/kg", "value": 362, "unit": "ng·h/mL"},
      {"measurement": "Cmax", "setting": "[5]; 0.27 mg/kg", "value": 664, "unit": "ng/mL"},
      {"measurement": "AUC", "setting": "[6]; [15]", "value": 631, "unit": "ng·h/mL"},
      {"measurement": "Cmax", "setting": "[6]; [15]", "value": 177, "unit": "ng/mL"},
      {"measurement": "half-life", "setting": "[6]; 40 mg/m2, oral, 40 mg/m^2, n=10, read-out: Half-Life (SD) (converted)", "value": 29.8, "unit": "h"},
      {"measurement": "Tmax", "setting": "[6]; 40 mg/m2, oral, 40 mg/m^2, n=10, read-out: Tmax, median (minimum, maximum)", "value": 1, "unit": "h"},
      {"measurement": "bioavailability", "setting": "[6]; oral vs IV, 40 mg/m^2, n = 9, read-out: Bioavailability (SD)", "value": 27, "unit": "%"},
      {"measurement": "increase in systemic exposure with cremophor vehicle", "setting": "vehicle 2 compared to vehicle 1", "value": "about 3.4 fold"},
      {"measurement": "increase in systemic exposure with cremophor vehicle", "setting": "vehicle 2 compared to vehicle 3", "value": "~5.3", "unit": "fold"},
      {"measurement": "MTD", "setting": "in vivo [7]", "value": 90, "unit": "mg/kg"},
      {"measurement": "AUC", "setting": "in vivo [8]; mean AUC, vehicle 1 ethanol:water (10:90)", "value": 133, "unit": "ng·h/mL"},
      {"measurement": "AUC", "setting": "in vivo [8]; mean AUC, vehicle 2 cremophor:ethanol:water (10:10:80)", "value": 708, "unit": "ng·h/mL"},
      {"measurement": "AUC", "setting": "in vivo [8]; pH 7.4, mean AUC, vehicle 3 propylene glycol:ethanol:phosphate buffer pH 7.4 (40:5:55)", "value": 210, "unit": "ng·h/mL"},
      {"measurement": "AUC", "setting": "in vivo [9]", "value": 2890, "unit": "ng·h/mL"},
      {"measurement": "AUC", "setting": "in vivo [9]; pH 7.4", "value": 717, "unit": "ng·h/mL"},
      {"measurement": "rate of oxidative metabolism", "setting": "Liver S9 incubation, rat", "value": 0.04},
      {"measurement": "rate of oxidative metabolism", "setting": "[10]", "value": 0.05, "unit": "mmol/min/mg protein"},
      {"measurement": "rate of oxidative metabolism", "setting": "[11]", "value": 0.07},
      {"measurement": "rate of oxidative metabolism", "setting": "[12]", "value": 0.06},
      {"measurement": "rate of oxidative metabolism", "setting": "[13]", "value": 0.3},
      {"measurement": "IC50", "setting": "CYP1A2", "value": "> 70", "unit": "µM"},
      {"measurement": "apparent steady-state concentrations", "setting": "[14]; doses of 2 and 4 mg/kg, 10-h IV infusion, mouse plasma", "value": "18-31 ng/mL and 35-60 nM"},
      {"measurement": "MEC", "setting": "[14]; estimated from plasma Css, 10-hr IV infusion, Pat-7 model", "value": "35 to 60", "unit": "nM"}
    ]}
  ]
}
